The results in this text go back to ChEMBL document CHEMBL1127254, “Induction of endonucleolytic DNA fragmentation and apoptosis by the duocarmycins” (Bioorg Med Chem Lett, 1994).

Structures are written as SMILES.

Assay [1] is described as follows: Mean concentration required for the compound to inhibit tumor activity in 20 different cell lines was determined. It is filed as functional.
Assay [2] has as its system MOLT-4. Put plainly: Induced cell death in Molt-4 cell line at a dose of E-9 M after 28 hour of incubation. Format: functional, Homo sapiens.
Assay [3] deals with MOLT-4. Put plainly: Induced cell death in Molt-4 cell line at a dose of E-9 M after 3 hour of incubation. It is filed as functional, Homo sapiens.
Assay [4] has as its system MOLT-4. Kind of assay: Induced cell death in Molt-4 cell line at a dose of E-9 M after 5 hour of incubation. Format: functional, Homo sapiens.
The test system of assay [5] is MOLT-4. Kind of assay: Induced cell death in Molt-4 cell line at a dose of E-9 M after 8 hour of incubation. Format: functional, Homo sapiens.
Assay [6] deals with MOLT-4. Put plainly: Induced cell death in Molt-4 cell line at a dose of E-10 M after 1 hour of incubation. It is filed as functional, Homo sapiens.
Assay [7] deals with MOLT-4. Kind of assay: Induced cell death in Molt-4 cell line at a dose of E-10 M after 20 hour of incubation. It is filed as functional, Homo sapiens.
In assay [8] the test system is MOLT-4. Kind of assay: Induced cell death in Molt-4 cell line at a dose of E-10 M after 28 hour of incubation. Format: functional, Homo sapiens.
The subject of assay [9] is MOLT-4. Put plainly: Induced cell death in Molt-4 cell line at a dose of E-10 M after 3 hour of incubation. It is filed as functional, Homo sapiens.
Assay [10] concerns MOLT-4. Kind of assay: Induced cell death in Molt-4 cell line at a dose of E-10 M after 5 hour of incubation. It is filed as functional, Homo sapiens.
The test system of assay [11] is MOLT-4. Put plainly: Induced cell death in Molt-4 cell line at a dose of E-10 M after 8 hour of incubation. It is filed as functional, Homo sapiens.
Assay [12] relates to MOLT-4. Kind of assay: Induced cell death in Molt-4 cell line at a dose of E-8 M after 1 hour of incubation. Format: functional, Homo sapiens.
Assay [13] has as its system MOLT-4. Kind of assay: Induced cell death in Molt-4 cell line at a dose of E-8 M after 20 hour of incubation. It is filed as functional, Homo sapiens.
The test system of assay [14] is MOLT-4. Put plainly: Induced cell death in Molt-4 cell line at a dose of E-8 M after 28 hour of incubation. Format: functional, Homo sapiens.
Assay [15] concerns MOLT-4. Put plainly: Induced cell death in Molt-4 cell line at a dose of E-8 M after 3 hour of incubation. Format: functional, Homo sapiens.
Assay [16] concerns MOLT-4. Put plainly: Induced cell death in Molt-4 cell line at a dose of E-8 M after 8 hour of incubation. Format: functional, Homo sapiens.
Assay [17] concerns MOLT-4. Kind of assay: Induced cell death in Molt-4 cell line at a dose of E-9 M after 1 hour of incubation. It is filed as functional, Homo sapiens.
The subject of assay [18] is MOLT-4. Put plainly: Induced cell death in Molt-4 cell line at a dose of E-9 M after 20 hour of incubation. It is filed as functional, Homo sapiens.
Assay [19] has as its system MOLT-4. Put plainly: Induced cell death in Molt-4 cell line at a dose of E-8 M after 5 hour of incubation. It is filed as functional, Homo sapiens.

In assay [1], `COC(=O)[C@]1(C)Nc2c(O)cc3c(c2C1=O)[C@H](CCl)CN3C(=O)c1cc2cc(OC)c(OC)c(OC)c2[nH]1` displayed an IC50 of 20 nM.

With `COC(=O)c1cc2c([nH]1)C(=O)C=C1N(C(=O)c3cc4cc(OC)c(OC)c(OC)c4[nH]3)C[C@H]3C[C@]123` [DUOCARMYCIN], the Viability in the assay with MOLT-4 [2] was determined as 12%; with MOLT-4 [3], 95%; in the assay on MOLT-4 [4], 85%; in the assay on MOLT-4 [5], 52%; in the assay with MOLT-4 [6] it was 95%; in the assay with MOLT-4 [7], 58%. Moreover, the Viability in the assay on MOLT-4 [8] is 58%; in the assay with MOLT-4 [9], 95%; with MOLT-4 [10], 90%; in the assay on MOLT-4 [11], 65%; with MOLT-4 [12], 95%; in the assay with MOLT-4 [13], 10%. Moreover, the Viability was determined as 10% in the assay with MOLT-4 [14]; 92% in the assay with MOLT-4 [15]; 42% in the assay on MOLT-4 [16]; 95% in the assay on MOLT-4 [17]; 15% in the assay on MOLT-4 [18]; 80% in the assay with MOLT-4 [19]. In [1], this compound registered an IC50 of 0.1 nM.
